Assay results published in ChEMBL document CHEMBL4266050, “Metabolomics-Driven Discovery of Meroterpenoids from a Mussel-Derived Penicillium ubiquetum” (J Nat Prod, 2018).
The source made the active and inactive calls. No cut-off for these calls is given here.

Legend:
KB [1] = test: Cytotoxicity against human KB cells at 50 uM by MTT assay; assay type: functional, cell-based
MCF7 [2] = test: Cytotoxicity against human MCF7 cells at 50 uM by MTT assay; assay type: functional, cell-based
[3] = Stability of the compound; assay type: physicochemical
KB [4] = test: Cytotoxicity against human KB cells by MTT assay; assay type: functional, cell-based
MCF7 [5] = test: Cytotoxicity against human MCF7 cells by MTT assay; assay type: functional, cell-based

Row | Stability [3] | SMILES | Activity (KB [1]) | Activity (MCF7 [2]) | IC50 (KB [4]) | IC50 (MCF7 [5])
1 |  | COC(=O)O[C@@H]1C=C2C(=CC(=O)OC2(C)C)[C@H](C)[C@@H]2C[C@@]3(C)C(=O)O[C@H]4O[C@@H](C)C(=O)[C@H]([C@H]43)[C@@]12C | inactive | inactive |  | 
2 |  | COC(=O)[C@@]1(C)O[C@H]2OC(=O)[C@@H]3[C@H]2[C@@](C)(C[C@H]2C(C)=C4CC(=O)OC(C)(C)C4=CC[C@]32C)C1=O | inactive | inactive |  | 
3 | Unstable | COC(=O)[C@]12C(=O)[C@H](C)O[C@@H]3OC(=O)[C@](C)(C[C@H]4[C@@H](C)C5=CC(=O)OC(C)(C)C5=C[C@@H](O)[C@@]41C)[C@@H]32 |  |  |  | 
4 |  | COC(=O)[C@]12[C@@H]3[C@H]4OC(=O)[C@]3(C)C[C@H]3[C@@H](C)C5=CC(=O)OC(C)(C)C5=C[C@@H](O[C@]1(O)[C@H](C)O4)[C@@]32C | inactive | inactive |  | 
5 |  | COC(=O)[C@@]12[C@@]3(C)[C@H]4C=C5C(=CC(=O)OC5(C)C)[C@H](C)[C@@H]3C[C@@]3(C)C(=O)O[C@@H](O[C@@H](C)[C@@]1(O)O4)[C@@]23O | inactive | inactive |  | 
6 |  | COC(=O)[C@@]12[C@@H]3[C@H]4OC(=O)[C@]3(C)C[C@@H]3[C@]1(C)[C@@H](C=C1C(=CC(=O)OC1(C)C)[C@@]3(C)O)O[C@]2(O)[C@H](C)O4 | inactive | inactive |  | 
7 |  | CC(=O)O[C@@]12CO[C@@H]1C[C@H](O)[C@@]1(C)C(=O)[C@H](O)C3=C(C)[C@@H](OC(=O)[C@H](O)[C@@H](NC(=O)OC(C)(C)C)c4ccccc4)C[C@@](O)([C@@H](OC(=O)c4ccccc4)[C@H]21)C3(C)C [DOCETAXEL ANHYDROUS] |  |  | 38 nM | 10.3 nM
8 |  | COC(=O)[C@]12[C@@H]3[C@H]4OC(=O)[C@]3(C)CC3=C(C)C5=C(C[C@@H](O[C@]1(O)[C@H](C)O4)[C@@]32C)C(C)(C)OC(=O)C5 | inactive | inactive |  | 
9 |  | COC(=O)[C@]12C(=O)[C@H](C)O[C@@H]3OC(=O)[C@](C)(C[C@H]4C(C)=C5CC(=O)OC(C)(C)C5=CC[C@@]41C)[C@@H]32 | inactive | inactive |  | 
10 |  | COC(=O)O[C@@H]1C=C2C(=CC(=O)OC2(C)C)[C@H](C)[C@@H]2C[C@@]3(C)C(=O)O[C@H]4O[C@@H](C)C(=O)[C@@H]([C@@]12C)[C@]43O | inactive | inactive |  | 
